Measured values published in patent publication US20020111274A1, “1-alkyl-3-[1-(substituted phenyl) benzotriazol-6-yl] uracils” (BASF Aktiengesellschaft, priority 2000, published 2002).

Columns and labels:
Design in all cases: scale not given here
[1] = tested on: CASOB Sicklepod; experiment: Postemergence herbicidal evaluation, CASOB; type: in vivo, Cassia obtusifolia, L.; conditions: 0.062 kg/ha, postemergence spray, rated about two-three weeks after treatment
Method: (§1) In this evaluation, seedling plants are grown in jiffy flats for about two weeks. The test compounds are dispersed in 80/20 acetone/water mixtures containing 1.0% SUN-IT® II, a methylated seed oil, in sufficient quantities to provide the equivalent of about 0.006 kg to 0.400 kg per hectare of active compound when applied to the plants through a spray nozzle operating at 40 psi for a predetermined time. After spraying, the plants are placed on greenhouse benches and are cared for in accordance with conventional greenhouse procedures. Approximately two - three weeks after treatment, the seedling plants are examined and rated according to the rating system set forth below. Where more than one test is involved for a given compound, the data are averaged.

[2] = tested on: GLXMAW Soybean, Williams; experiment: Postemergence herbicidal evaluation, GLXMAW; type: in vivo, Glycine max, (L.) Merr. cv Williams; conditions: postemergence spray, rated about two-three weeks after treatment
Method: as §1

[3] = tested on: SETVI Foxtail, Green; experiment: Preemergence herbicidal evaluation, SETVI; type: in vivo, Setaria viridis, (L.) Beau; conditions: preemergence
Excerpt: (§2) The preemergence herbicidal activity of the test compounds of the present invention is exemplified by the following tests in which the seeds of a variety of monocotyledonous and dicotyledonous plants are separately mixed with potting soil and planted on top of approximately one inch of soil in separate pint cups. […] The treated cups are then placed on greenhouse benches, watered and cared for in accordance with conventional greenhouse procedures. From four to five weeks after treatment, the tests are terminated and each cup is examined and rated according to the rating system provided in Example 46.

[4] = tested on: ECHOG Barnyardgrass; experiment: Postemergence herbicidal evaluation, ECHOG; type: in vivo, Echinochloa crus-galli, (L.) Beau; conditions: postemergence spray, rated about two-three weeks after treatment
Method: as §1

[5] = tested on: TRZAWR Wheat, Winter, cv Riband; experiment: Preemergence herbicidal evaluation, TRZAWR; type: in vivo, Triticum aestivum; conditions: preemergence
Excerpt: as §2

[6] = tested on: CASOB Sicklepod; experiment: Preemergence herbicidal evaluation, CASOB; type: in vivo, Cassia obtusifolia, L.; conditions: preemergence
Excerpt: as §2

[7] = tested on: ABUTH Velvetleaf; experiment: Preemergence herbicidal evaluation, ABUTH; type: in vivo, Abutilon theophrasti, Medic.; conditions: preemergence
Excerpt: as §2

[8] = tested on: ZEAMX Corn, Field; experiment: Preemergence herbicidal evaluation, ZEAMX; type: in vivo, Zea mays, L. (Sammel-Bezeichnung); conditions: preemergence
Excerpt: as §2

[9] = tested on: ECHOG Barnyardgrass; experiment: Preemergence herbicidal evaluation, ECHOG; type: in vivo, Echinochloa crus-galli, (L.) Beau; conditions: preemergence
Excerpt: as §2

[10] = tested on: CHEAL Lambsquarters, Common; experiment: Preemergence herbicidal evaluation, CHEAL; type: in vivo, Chenopodium album, L.; conditions: preemergence
Excerpt: as §2

[11] = tested on: ORYSAT Rice, Tebonnet; experiment: Postemergence herbicidal evaluation, ORYSAT; type: in vivo, Oryza sativa, (L.); conditions: postemergence spray, rated about two-three weeks after treatment
Method: as §1

[12] = tested on: GALAP Galium; experiment: Preemergence herbicidal evaluation, GALAP; type: in vivo, Galium aparine; conditions: preemergence
Excerpt: as §2

[13] = tested on: TRZAWR Wheat, Winter, cv Riband; experiment: Postemergence herbicidal evaluation, TRZAWR; type: in vivo, Triticum aestivum; conditions: postemergence spray, rated about two-three weeks after treatment
Method: as §1

## C#CCOC(=O)COc1ccc(C)cc1-n1nnc2cc(F)c(-n3c(=O)cc(C(F)(F)F)n(C)c3=O)cc21 [Example 40]
[1]
  Postemergence herbicidal rating CASOB: 6.0
[2]; 0.008 kg/ha
  Postemergence herbicidal rating GLXMAW: 5.5
[2]; 0.016 kg/ha
  Postemergence herbicidal rating GLXMAW: 6.0
[2]; 0.032 kg/ha
  Postemergence herbicidal rating GLXMAW: 6.5
[2]; 0.062 kg/ha
  Postemergence herbicidal rating GLXMAW: 7.0
[3]; rate 0.016 kg/ha
  SETVI herbicidal rating: 0.0
[3]; rate 0.032 kg/ha
  SETVI herbicidal rating: 4.0
[3]; rate 0.062 kg/ha
  SETVI herbicidal rating: 5.0
[3]; rate 0.125 kg/ha
  SETVI herbicidal rating: 6.0
[4]; 0.008 kg/ha
  Postemergence herbicidal rating ECHCG: 4.0
[4]; 0.016 kg/ha
  Postemergence herbicidal rating ECHCG: 9.0
[4]; 0.032 kg/ha
  Postemergence herbicidal rating ECHCG: 9.0
[4]; 0.062 kg/ha
  Postemergence herbicidal rating ECHCG: 9.0
[5]; rate 0.016 kg/ha
  TRZAWR herbicidal rating: 0.0
[5]; rate 0.032 kg/ha
  TRZAWR herbicidal rating: 0.0
[5]; rate 0.062 kg/ha
  TRZAWR herbicidal rating: 0.0
[5]; rate 0.125 kg/ha
  TRZAWR herbicidal rating: 2.0
[6]; rate 0.016 kg/ha
  CASOB herbicidal rating: 0.0
[6]; rate 0.032 kg/ha
  CASOB herbicidal rating: 4.0
[6]; rate 0.062 kg/ha
  CASOB herbicidal rating: 3.0
[6]; rate 0.125 kg/ha
  CASOB herbicidal rating: 4.0
[7]; rate 0.016 kg/ha
  ABUTH herbicidal rating: 1.0
[7]; rate 0.032 kg/ha
  ABUTH herbicidal rating: 9.0
[7]; rate 0.062 kg/ha
  ABUTH herbicidal rating: 9.0
[7]; rate 0.125 kg/ha
  ABUTH herbicidal rating: 9.0
[8]; rate 0.016 kg/ha
  ZEAMX herbicidal rating: 0.0
[8]; rate 0.032 kg/ha
  ZEAMX herbicidal rating: 0.0
[8]; rate 0.062 kg/ha
  ZEAMX herbicidal rating: 1.0
[8]; rate 0.125 kg/ha
  ZEAMX herbicidal rating: 1.0
[9]; rate 0.016 kg/ha
  ECHCG herbicidal rating: 0.0
[9]; rate 0.032 kg/ha
  ECHCG herbicidal rating: 0.0
[9]; rate 0.062 kg/ha
  ECHCG herbicidal rating: 0.0
[9]; rate 0.125 kg/ha
  ECHCG herbicidal rating: 4.0
[10]; rate 0.016 kg/ha
  CHEAL herbicidal rating: 9.0
[10]; rate 0.032 kg/ha
  CHEAL herbicidal rating: 9.0
[10]; rate 0.062 kg/ha
  CHEAL herbicidal rating: 9.0
[10]; rate 0.125 kg/ha
  CHEAL herbicidal rating: 9.0
[11]; 0.008 kg/ha
  Postemergence herbicidal rating ORYSAT: 4.0
[11]; 0.016 kg/ha
  Postemergence herbicidal rating ORYSAT: 5.0
[11]; 0.032 kg/ha
  Postemergence herbicidal rating ORYSAT: 5.0
[11]; 0.062 kg/ha
  Postemergence herbicidal rating ORYSAT: 6.5
[12]; rate 0.032 kg/ha
  GALAP herbicidal rating: 0.0
[12]; rate 0.062 kg/ha
  GALAP herbicidal rating: 7.0
[12]; rate 0.125 kg/ha
  GALAP herbicidal rating: 9.0
[13]; 0.008 kg/ha
  Postemergence herbicidal rating TRZAWR: 4.0
[13]; 0.016 kg/ha
  Postemergence herbicidal rating TRZAWR: 5.0
[13]; 0.032 kg/ha
  Postemergence herbicidal rating TRZAWR: 5.5
[13]; 0.062 kg/ha
  Postemergence herbicidal rating TRZAWR: 6.5
